# Source: PubChem BioAssay (NCI)
#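 Exposure lasted 48 hours, with cells grown in 96-well plates and compounds tested at five concentrations. The concentration for 50% growth inhibition is given as GI50. The concentration for full growth arrest is given as TGI.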
# Assays:
# Experiment in all cases: NCI anticancer screen, dose series, 48 h
# SNB-78 CNS = tested on: SNB-78 CNS
# LXFL 529 NSCLC = tested on: LXFL 529 NSCLC
# DMS 114 small cell lung = tested on: DMS 114 small cell lung
# KM20L2 colon = tested on: KM20L2 colon
# HOP-18 NSCLC = tested on: HOP-18 NSCLC
# XF 498 CNS = tested on: XF 498 CNS
# RXF-631 renal = tested on: RXF-631 renal
SMILES,TGI (SNB-78 CNS),TGI (LXFL 529 NSCLC),TGI (DMS 114 small cell lung),TGI (KM20L2 colon),TGI (HOP-18 NSCLC),TGI (XF 498 CNS),TGI (RXF-631 renal),GI50 (SNB-78 CNS),GI50 (LXFL 529 NSCLC),GI50 (DMS 114 small cell lung),GI50 (KM20L2 colon),GI50 (HOP-18 NSCLC),GI50 (XF 498 CNS),GI50 (RXF-631 renal)
CCOc1ccccc1NC(=O)C(=O)Cc1nc2ccccc2s1,> 100 µM,> 100 µM,> 100 µM,> 100 µM,> 100 µM,> 100 µM,> 100 µM,,,,,,,
[F][Sn]([F])([c]1ccccc1)[c]1ccccc1,16 µM,2.08 µM,5.8 µM,3.39 µM,3.59 µM,3.45 µM,6.01 µM,3.18 µM,0.815 µM,2 µM,1.87 µM,2.08 µM,1.99 µM,2.3 µM
CC(C)(C)OC(=O)N1N=NC2C1C1CC(OCc3ccccc3)(OCc3ccccc3)C2O1 (stereo not drawn),> 100 µM,35 µM,40.6 µM,> 100 µM,> 100 µM,30.3 µM,> 100 µM,,,,,,,
